Experimental data from patent US8691851B2, “Lanthanide metal complexes useful in treating cancer” (National University of Singapore, priority 2009, dated 2014).
Where two headings read alike, the source gives them in different places.

Key:
PTEN, RhoB, MnSOD = settings: SHEP-1 and MDA-MB-231 cells, 5 μM and 10 μM, dose-dependent
Method: Whole cell lysates were prepared with RIPA lysis buffer containing 10 mM Tris-HCL pH7.4, 30 mM NaCl, 1 mM EDTA, 1% Nonidet P-40, supplemented with 1 mM Na3VO4, 1 μg/ml leupeptin, 1 μg/ml pepstatin A, 1 μg/ml aprotinin and 1 mM PMSF before use. Protein concentration was determined for each sample and equal amounts of protein were boiled for 5 min for other proteins, with 1×SDS sample buffer and resolved by 8% SDS-PAGE. Thereafter, proteins were transferred onto nitrocellulose membrane, blocked for 1 h at room temperature with 5% non-fat milk, and incubated overnight at 4° C. with the primary antibody. After probing with secondary antibody for 1 hr at 25° C., protein bands were detected by using the Supersignal West Pico Chemiluminescence (Pierce). β-actin antibody was used as a loading control.
Referring to FIGS. 14 and 15, SHEP-1 neuroblastoma cells and MDA-MB-231 breast cancer cells were treated with different concentrations of C19H24N3O5S5Pr at 5 μM and 10 μM for 4 hr, 8 hr, 18 hr, 241r, 48 hr and 72 hr. Whole cell extracts were prepared and protein expression was examined by Western Blot analysis. 70 μg of total protein was loaded per lane for each experiment. The levels of protein were determined by using specific primary antibody followed by peroxidise-conjugated secondary antibody and visualization by enhanced chemiluminescence.

Bax, cytochrome C = settings: 5 μM and 10 μM
[1] = molecular target: T1, phosphorylation-defective mutant of PPARγ (GFP-PPARg S82A) (Mus musculus, UniProt P37238, S112A); experiment: 3×PPRE luciferase reporter with phosphorylation-defective mutant PPARγ; type: cell-based; settings: SHSY5Y cells, 10 uM, 18 hours
T1 construct: expressed in transfected cells; host or cells: SHSY5Y neuroblastoma cells
T1 sequence (P37238 1-475 isoform P37238-2 S82A): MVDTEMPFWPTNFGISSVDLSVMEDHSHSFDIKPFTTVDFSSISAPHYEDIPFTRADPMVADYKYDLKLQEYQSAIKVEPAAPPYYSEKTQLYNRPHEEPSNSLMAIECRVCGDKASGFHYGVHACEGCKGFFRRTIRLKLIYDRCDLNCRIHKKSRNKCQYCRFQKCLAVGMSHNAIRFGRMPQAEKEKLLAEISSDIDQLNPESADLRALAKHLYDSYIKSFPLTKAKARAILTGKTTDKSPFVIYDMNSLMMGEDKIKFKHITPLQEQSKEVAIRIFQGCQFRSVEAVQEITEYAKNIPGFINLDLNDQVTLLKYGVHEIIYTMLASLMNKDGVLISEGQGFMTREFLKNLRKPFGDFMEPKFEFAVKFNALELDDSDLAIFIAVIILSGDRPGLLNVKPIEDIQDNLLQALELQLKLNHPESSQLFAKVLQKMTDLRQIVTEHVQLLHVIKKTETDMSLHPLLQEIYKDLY
Method: SHSY5Y neuroblastoma cells were transiently co-transfected with either a plasmid encoding wild type PPARγ or a phosphorylation-defective mutant of PPARγ (GFP-PPARg S82A), 3×PPRE luciferase plasmid and plasmid encoding renilla for transfection efficiency. Forty eight hours following transfection, cells were exposed to 10 uM of C19H24N3O5S5Pr for 18 hours.

PPARγ [2] = settings: SHEP1 cells, 0 to 5 uM, 18 hours
Method: To determine if C19H24N3O5S5Pr binds to PPARγ, neuroblastoma SHEP1 cells were transiently co-transfected with either empty vector or a DNA-binding mutant of PPARγ, 3×PPPRE luciferase plasmid and renilla plasmid for transfection efficiency. Forty eight hours following transfection, the cells were exposed to increased concentration (0 to 5 uM) of C19H24N3O5S5Pr for 18 hours. PPARγ activity was calculated as luciferase RLU/renilla/μg total protein.

PPARγ [3] = molecular target: T2, PPARγ (Homo sapiens, UniProt P37231); type: cell-based; design: endogenous in cells; host or cells: SHSY5Y, SHEP1 / SHEP-1 (neuroblastoma); settings: 18 hours
T2 sequence (P37231 1-505): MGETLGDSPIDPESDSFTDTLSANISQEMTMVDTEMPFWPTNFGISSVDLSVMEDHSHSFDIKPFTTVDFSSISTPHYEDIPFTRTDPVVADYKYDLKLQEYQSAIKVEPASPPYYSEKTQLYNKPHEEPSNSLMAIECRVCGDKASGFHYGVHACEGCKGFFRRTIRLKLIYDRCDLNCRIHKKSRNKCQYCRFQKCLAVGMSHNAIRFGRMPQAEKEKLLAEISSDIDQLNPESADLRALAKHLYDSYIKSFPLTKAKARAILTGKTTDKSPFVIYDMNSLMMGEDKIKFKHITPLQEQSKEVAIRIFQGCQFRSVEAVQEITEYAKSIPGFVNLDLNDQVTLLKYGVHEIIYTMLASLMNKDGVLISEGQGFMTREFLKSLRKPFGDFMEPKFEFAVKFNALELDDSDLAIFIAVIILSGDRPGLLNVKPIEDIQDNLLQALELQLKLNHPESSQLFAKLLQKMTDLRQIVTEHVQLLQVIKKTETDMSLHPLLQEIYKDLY
Method: To determine if C19H24N3O5S5Pr activates PPARγ, SHSY5Y and SHEP1 neuroblastoma cells were transiently co-transfected with a 3×PPRE luciferase plasmid and renilla plasmid for transfection efficiency. Forty eight hours following transfection, the cells were exposed to increased concentrations (0 to 10 μM) of 15d-PGJ2 and C19H24N3O5S5Pr for 18 hours. The fold increase in luciferase activity correlates with the PPARγ activity of the cell. PPARγ activity is determined by calculating the RLU/renilla/μg total protein.
To assess if C19H24N3O5S5Pr activation of PPARγ is dependent on expression of PPARγ neuroblastoma cells, neuroblastoma cells SHEP1 and SHSY5Y were transiently co-transfected with a 3×PPRE luciferase plasmid and renilla plasmid for transfection efficiency. Forty eight hours following transfection, cells were exposed to increased concentrations (0 to 20 μM) of C19H24N3O5S5Pr for 18 hours. PPARγ activity was calculated as luciferase RLU/renilla/μg total protein.

PARP = settings: SHEP-1 cells, 5 μM and 10 μM, 24 hrs

In the case of `CS(C)=O.CS(C)=O.[O-][n+]1ccccc1[S-].[O-][n+]1ccccc1[S-].[O-][n+]1ccccc1[S-].[Pr+3]` [C19H24N3O5S5Pr, praseodymium (2-mercaptopyridine N-oxide)(dimethylsulfoxide)], the MnSOD protein expression (PTEN, RhoB, MnSOD) is reported as “downregulated”, the PTEN protein expression (PTEN, RhoB, MnSOD) is reported as “upregulated” and the RhoB protein expression (PTEN, RhoB, MnSOD) is reported as “upregulated”. The Bax translocation (Bax, cytochrome C; SHEP-1 cells, 18 hr and 24 hr) was “causes Bax translocation to the mitochondrial fraction”, the “cytochrome C release” value (Bax, cytochrome C; SHEP-1 cells, 18 hr and 24 hr) was “cytochrome C release into the cytosol” and the Bax translocation (Bax, cytochrome C; SHSY5Y cells, 24 hr) was “causes Bax translocation to the mitochondrial fraction”. The “cytochrome C release” value (Bax, cytochrome C; SHSY5Y cells, 24 hr) was “cytochrome C release into the cytosol”, the “activation of phosphorylation-defective mutant PPARγ versus wild type” value [1] was “significant activation of phosphorylation-defective mutant PPARγ” and the “PPARγ activation on overexpression of DNA-binding mutant PPARγ” value (PPARγ [2]) was “significantly reduced the ability of C19H24N3O5S5Pr to activate PPARγ”. The “PPARγ activation, SHEP1 versus SHSY5Y cells” value (PPARγ [3]; 0 to 20 μM) was “activates PPARγ better in SHEP1 cells, than in SHSY5Y cells”, the “PPARγ activation (luciferase RLU/renilla/μg total protein)” value (PPARγ [3]; SHSY5Y and SHEP1 cells in 10% serum, 0 to 10 μM) was “significant activation of PPARγ” and the “PARP cleavage (80 kDa fragment)” value (PARP) was “PARP cleavage”.
